This is an account of results in patent US20120101093A1, “SUBSTITUTED IMIDAZO[1,2-A]PYRIDINE DERIVATIVES, PHARMACEUTICAL COMPOSITIONS, AND METHODS OF USE AS BETA-SECRETASE INHIBITORS” (HIGH POINT PHARMACEUTICALS, LLC, priority 2009, published 2012).

For the experiment, the target named is T1, BACE-1 enzyme (Homo sapiens, UniProt P56817).
T1 construct: purchased R & D Systems 931AS
T1 sequence (P56817 46-457 limits assumed): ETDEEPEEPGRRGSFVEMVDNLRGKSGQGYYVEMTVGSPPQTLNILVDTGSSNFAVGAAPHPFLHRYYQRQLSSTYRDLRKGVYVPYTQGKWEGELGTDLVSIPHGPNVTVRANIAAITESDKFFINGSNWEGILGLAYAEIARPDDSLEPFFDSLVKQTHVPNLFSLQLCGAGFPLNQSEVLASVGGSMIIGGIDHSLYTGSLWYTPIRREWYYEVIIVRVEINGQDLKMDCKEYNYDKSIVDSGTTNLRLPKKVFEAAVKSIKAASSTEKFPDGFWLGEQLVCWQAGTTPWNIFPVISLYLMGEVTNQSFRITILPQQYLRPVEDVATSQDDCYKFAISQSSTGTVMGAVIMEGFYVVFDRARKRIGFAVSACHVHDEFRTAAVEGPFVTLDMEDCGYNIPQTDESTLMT
Nature of the experiment: BACE Fluorescence Resonance Energy Transfer (FRET) Assay. The experiment is classed as biochemical. The settings on record: pH 4-4.5, 30 min pre-incubation, about 1.5 hours reaction. In short, it runs like this:
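BACE-1 enzyme pre-incubated 30 min with compound in 7.5% DMSO in 50 mM sodium acetate pH 4-4.5, 0.01% CHAPS, 0.0125% Triton X-100, 0.006% EDTA. Rhodamine/quencher peptide substrate added; ~1.5 h at room temperature, fluorescence read at 540/585 nm. IC50 or percent inhibition at one concentration.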
Molecule `O=C(Nc1nc2cc(OCc3ccc(Cl)c(Cl)c3)ccc2[nH]1)c1cn2cc(Cl)ccc2n1` [Example 20, 6-Chloro-imidazo[1,2-a]pyridine-2-carboxylic acid [5-(3,4-dichloro-benzyloxy)-1H-benzoimidazol-2-yl]-amide] yielded an IC50 of 0.25 µM.
`O=C(Nc1nc2cc(OCc3ccccc3)ccc2[nH]1)c1cn2cc(Cl)ccc2n1` [Example 13, 6-Chloro-imidazo[1,2-a]pyridine-2-carboxylic acid (5-benzyloxy-1H-benzoimidazol-2-yl)-amide] displayed an IC50 of 0.08 µM.
The result for `O=C(Nc1nc2cc(-c3cccc(Cl)c3)ccc2[nH]1)c1cn2cc(N3CC[C@H](O)C3)ccc2n1` [Example 232, 6-((S)-3-Hydroxy-pyrrolidin-1-yl)-imidazo[1,2-a]pyridine-2-carboxylic acid [5-(3-chloro-phenyl)-1H-benzoimidazol-2-yl]-amide] reads 0.14 µM.
As to `Cc1cccn2cc(C(=O)Nc3nc4cc(-c5cc(F)cc(Cl)c5)ccc4[nH]3)nc12` [Example 57, 8-Methyl-imidazo[1,2-a]pyridine-2-carboxylic acid [5-(3-chloro-5-fluoro-phenyl)-1H-benzoimidazol-2-yl]-amide], the half-maximal inhibitory concentration (IC50) was found to be 0.4 µM.
Consider `CN(C)Cc1ccc2nc(C(=O)Nc3nc4cc(-c5cccc(C(F)(F)F)c5)ccc4[nH]3)cn2c1` [Example 181, 6-Dimethylaminomethyl-imidazo[1,2-a]pyridine-2-carboxylic acid [5-(3-trifluoromethyl-phenyl)-1H-benzoimidazol-2-yl]-amide], for which the IC50 came to 0.8 µM.
On to `CO[C@H]1CCN(c2ccc3nc(C(=O)Nc4nc5cc(-c6cc(F)cc(Cl)c6)ccc5[nH]4)cn3c2C)C1` [Example 237, 6-((S)-3-Methoxy-pyrrolidin-1-yl)-5-methyl-imidazo[1,2-a]pyridine-2-carboxylic acid [5-(3-chloro-5-fluoro-phenyl)-1H-benzoimidazol-2-yl]-amide], for which it took 0.23 µM to reach half-maximal inhibition (IC50).
Turning to `COCCNc1cc(F)cn2cc(C(=O)Nc3nc4cc(-c5cc(F)cc(Cl)c5)ccc4[nH]3)nc12` [Example 138, 6-Fluoro-8-(2-methoxy-ethylamino)-imidazo[1,2-a]pyridine-2-carboxylic acid [5-(3-chloro-5-fluoro-phenyl)-1H-benzoimidazol-2-yl]-amide], the concentration for half-maximal inhibition (IC50) is 1.27 µM.
The result for `O=C(Nc1nc2cc(-c3cc(F)cc(Cl)c3)ccc2[nH]1)c1cn2cc(F)ccc2n1` [Example 113, 6-Fluoro-imidazo[1,2-a]pyridine-2-carboxylic acid [5-(3-chloro-5-fluoro-phenyl)-1H-benzoimidazol-2-yl]-amide] reads 0.46 µM; that for `COc1cc(F)cn2cc(C(=O)Nc3nc4cc(-c5cccc(OC(F)(F)F)c5)ccc4[nH]3)nc12` [Example 136, 6-Fluoro-8-methoxy-imidazo[1,2-a]pyridine-2-carboxylic acid [5-(3-trifluoromethoxy-phenyl)-1H-benzoimidazol-2-yl]-amide], 0.23 µM; that for `CCNCc1ccc2nc(C(=O)Nc3nc4cc(-c5cccc(C(F)(F)F)c5)ccc4[nH]3)cn2c1` [Example 187, 6-Ethylaminomethyl-imidazo[1,2-a]pyridine-2-carboxylic acid [5-(3-trifluoromethyl-phenyl)-1H-benzoimidazol-2-yl]-amide], 0.51 µM.
The result for `Cn1cc(-c2cccc3nc(C(=O)Nc4nc5cc(-c6cccc(C(F)(F)F)c6)ccc5[nH]4)cn23)cn1` [Example 213, 5-(1-methyl-1H-pyrazol-4-yl)-N-{5-[3-(trifluoromethyl)phenyl]-1H-benzimidazol-2-yl}imidazo[1,2-a]pyridine-2-carboxamide] reads 0.26 µM; that for `Cc1cccc2nc(C(=O)Nc3nc4cc(-c5cc(Cl)cc(C(F)(F)F)c5)ccc4[nH]3)cn12` [Example 66, 5-Methyl-imidazo[1,2-a]pyridine-2-carboxylic acid [6-(3-chloro-5-trifluoromethyl-phenyl)-1H-benzoimidazol-2-yl]-amide], 0.28 µM.
`CCOc1ccc(-c2ccc3[nH]c(NC(=O)c4cn5c(C)cccc5n4)nc3c2)c(Cl)c1` [Example 108, 5-Methyl-imidazo[1,2-a]pyridine-2-carboxylic acid [5-(2-chloro-4-ethoxy-phenyl)-1H-benzoimidazol-2-yl]-amide] returned a half-inhibitory concentration (IC50) of 0.39 µM.
`CN(C)c1cc(F)cn2cc(C(=O)Nc3nc4cc(-c5cccc(OC(F)(F)F)c5)ccc4[nH]3)nc12` [Example 133, 8-Dimethylamino-6-fluoro-imidazo[1,2-a]pyridine-2-carboxylic acid [5-(3-trifluoromethoxy-phenyl)-1H-benzoimidazol-2-yl]-amide] came in with an IC50 of 0.64 µM.
The same measure for `O=C(Nc1nc2cc(-c3cccc(C(F)(F)F)c3)ccc2[nH]1)c1cn2c(-c3ccncc3)cccc2n1` [Example 217, 5-(pyridin-4-yl)-N-{5-[3-(trifluoromethyl)phenyl]-1H-benzimidazol-2-yl}imidazo[1,2-a]pyridine-2-carboxamide]: 0.15 µM; for `Cc1cccc2nc(C(=O)Nc3nc4cc(-c5ccncc5)ccc4[nH]3)cn12` [Example 38, 5-Methyl-imidazo[1,2-a]pyridine-2-carboxylic acid (5-pyridin-4-yl-1H-benzoimidazol-2-yl)-amide]: 3.14 µM; for `O=C(Nc1nc2cc(-c3cccc(C(F)(F)F)c3)ccc2[nH]1)c1cn2c(C3CCNCC3)cccc2n1` [Example 218, 5-(piperidin-4-yl)-N-{5-[3-(trifluoromethyl)phenyl]-1H-benzimidazol-2-yl}imidazo[1,2-a]pyridine-2-carboxamide]: 0.45 µM.
Molecule `COCCNCc1ccn2cc(C(=O)Nc3nc4cc(-c5cccc(C(F)(F)F)c5)ccc4[nH]3)nc2c1` [Example 208, 7-[(2-Methoxy-ethylamino)-methyl]-imidazo[1,2-a]pyridine-2-carboxylic acid [5-(3-trifluoromethyl-phenyl)-1H-benzoimidazol-2-yl]-amide] returned a half-maximal inhibitory concentration (IC50) of 0.23 µM.
The same measure for `Cc1cccn2cc(C(=O)Nc3nc4cc(OCc5ccc(OC(F)(F)F)cc5)ccc4[nH]3)nc12` [Example 33, 8-Methyl-imidazo[1,2-a]pyridine-2-carboxylic acid [5-(4-trifluoromethoxy-benzyloxy)-1H-benzoimidazol-2-yl]-amide]: 1.36 µM.
The result for `Cc1cccn2cc(C(=O)Nc3nc4cc(OC5CCCC5)ccc4[nH]3)nc12` [Example 31, 8-Methyl-imidazo[1,2-a]pyridine-2-carboxylic acid (5-cyclopentyloxy-1H-benzoimidazol-2-yl)-amide] reads 2.69 µM; that for `O=C(Nc1nc2cc(-c3cc(F)cc(Cl)c3)ccc2[nH]1)c1cn2cc(Cl)cc(Cl)c2n1` [Example 143, 6,8-Dichloro-imidazo[1,2-a]pyridine-2-carboxylic acid [5-(3-chloro-5-fluoro-phenyl)-1H-benzoimidazol-2-yl]-amide], 1.06 µM; that for `CO[C@@H]1CCN(c2cccc3nc(C(=O)Nc4nc5cc(-c6cc(F)cc(Cl)c6)ccc5[nH]4)cn23)C1` [Example 156, 5-((R)-3-Methoxy-pyrrolidin-1-yl)-imidazo[1,2-a]pyridine-2-carboxylic acid [5-(3-chloro-5-fluoro-phenyl)-1H-benzoimidazol-2-yl]-amide], 0.29 µM.
`Cc1c(C#CCO)ccc2nc(C(=O)Nc3nc4cc(-c5cccc(C(F)(F)F)c5)ccc4[nH]3)cn12` [Example 238, 6-(3-Hydroxy-prop-1-ynyl)-5-methyl-imidazo[1,2-a]pyridine-2-carboxylic acid [5-(3-trifluoromethyl-phenyl)-1H-benzoimidazol-2-yl]-amide]: the half-inhibitory concentration (IC50) was 0.22 µM.
For the molecule `CO[C@@H]1CCN(c2ccc3nc(C(=O)Nc4nc5cc(-c6cc(F)cc(Cl)c6)ccc5[nH]4)cn3c2C)C1` [Example 236, 6-((R)-3-Methoxy-pyrrolidin-1-yl)-5-methyl-imidazo[1,2-a]pyridine-2-carboxylic acid [5-(3-chloro-5-fluoro-phenyl)-1H-benzoimidazol-2-yl]-amide], the concentration for half-maximal inhibition (IC50) is 0.25 µM.
The result for `CN1CCN(Cc2ccc3nc(C(=O)Nc4nc5cc(-c6cccc(C(F)(F)F)c6)ccc5[nH]4)cn3c2)CC1` [Example 183, 6-(4-Methyl-piperazin-1-ylmethyl)-imidazo[1,2-a]pyridine-2-carboxylic acid [5-(3-trifluoromethyl-phenyl)-1H-benzoimidazol-2-yl]-amide] reads 0.56 µM; that for `COCCn1c(NC(=O)c2cn3c(C)cccc3n2)nc2cc(-c3ccc(Cl)c(C(F)(F)F)c3)ccc21` [Example 242, 5-Methyl-imidazo[1,2-a]pyridine-2-carboxylic acid [5-(4-chloro-3-trifluoromethyl-phenyl)-1-(2-methoxy-ethyl)-1H-benzoimidazol-2-yl]-amide], 0.44 µM.
The same measure for `Cc1cccc2nc(C(=O)Nc3nc4cc(-c5cccc(S(C)(=O)=O)c5)ccc4[nH]3)cn12` [Example 74, 5-Methyl-imidazo[1,2-a]pyridine-2-carboxylic acid [5-(3-methanesulfonyl-phenyl)-1H-benzoimidazol-2-yl]-amide]: 1.72 µM.
Turning to `O=C(Nc1nc2cc(-c3cc(F)cc(Cl)c3)ccc2[nH]1)c1cn2cc(F)cc(N3CCNCC3)c2n1` [Example 130, 6-Fluoro-8-piperazin-1-yl-imidazo[1,2-a]pyridine-2-carboxylic acid [5-(3-chloro-5-fluoro-phenyl)-1H-benzoimidazol-2-yl]-amide], the IC50 came out at 0.35 µM.
The same measure for `Cc1cccc2nc(C(=O)Nc3nc4cc(-c5ccc(Cl)c(C(F)(F)F)c5)ccc4n3CCN3CCOCC3)cn12` [Example 243, 5-Methyl-imidazo[1,2-a]pyridine-2-carboxylic acid [5-(4-chloro-3-trifluoromethyl-phenyl)-1-(2-morpholin-4-yl-ethyl)-1H-benzoimidazol-2-yl]-amide]: 6.9 µM.
